Data taken from patent US11154063B2, “Method for producing a bacteriostatic and fungistatic additive in masterbatch for application in plastics” (SERVICIOS ADMINISTRATIVOS PEÑOLES, S.A. DE C.V., priority 2013, dated 2021).

Tested on: S. aureus
Assay: Inhibition in RP 340 polypropylene copolymer after aging in UV chamber
Assay type: cell-based
Conditions: after 120 h of aging in UV chamber

**Q.** For `Oc1cc(Cl)ccc1Oc1ccc(Cl)cc1Cl` [triclosan], which “After 120 h of aging Inhibition %.” value is on record?
**A.** starts decreasing its antimicrobial effectiveness
